Results taken from paper PMC9823097, “Dysregulation of PRMT5 in chronic lymphocytic leukemia promotes progression with high risk of Richter’s transformation” (Nature Communications, 2023).

Tests used:
[1] = system: HG3 cells; assay: Cell growth curves over 12 days, HG3; format: cell-based; details: for anti-proliferative potency compared to PRT382: HG3
Method: (§1) Live cells/mL were counted on days 3, 6, 10, and 12. […] The split factor was calculated at indicated time points by dividing the counted cells/mL by 3E5. Cell growth was extrapolated over time by multiplying the subsequent cell count by the previous split factor. Cell growth is plotted as fold change relative to DMSO-treated cells.

[2] = system: Mec-1 cells; assay: Cell growth curves over 12 days, Mec-1; format: cell-based; details: for anti-proliferative potency compared to PRT382: Mec-1
Method: as §1

Structure (SMILES): Nc1ncnc2c1ccn2C1OC(C(O)c2ccc(Cl)c(F)c2)C(O)C1O (stereo not drawn) [PF-06855800]
- Rep 1 Live Cells [Fold Change] ([1]; HG3, 1 nM, day 0): 1 Fold Change
- Rep 2 Live Cells [Fold Change] ([1]; HG3, 1 nM, day 0): 1 Fold Change
- Rep 1 Live Cells [Fold Change] ([1]; HG3, 1 nM, day 3): 3.4 Fold Change
- Rep 2 Live Cells [Fold Change] ([1]; HG3, 1 nM, day 3): 6.6 Fold Change
- Rep 1 Live Cells [Fold Change] ([1]; HG3, 1 nM, day 6): 16.32 Fold Change
- Rep 2 Live Cells [Fold Change] ([1]; HG3, 1 nM, day 6): 45.98 Fold Change
- Rep 1 Live Cells [Fold Change] ([1]; HG3, 1 nM, day 10): 137.904 Fold Change
- Rep 2 Live Cells [Fold Change] ([1]; HG3, 1 nM, day 10): 282.777 Fold Change
- Rep 1 Live Cells [Fold Change] ([1]; HG3, 1 nM, day 12): 482.664 Fold Change
- Rep 2 Live Cells [Fold Change] ([1]; HG3, 1 nM, day 12): 1404.46 Fold Change
- Rep 1 Live Cells [Fold Change] ([1]; HG3, 10 nM, day 0): 1 Fold Change
- Rep 2 Live Cells [Fold Change] ([1]; HG3, 10 nM, day 0): 1 Fold Change
- Rep 1 Live Cells [Fold Change] ([1]; HG3, 10 nM, day 3): 3.27 Fold Change
- Rep 2 Live Cells [Fold Change] ([1]; HG3, 10 nM, day 3): 4.767 Fold Change
- Rep 1 Live Cells [Fold Change] ([1]; HG3, 10 nM, day 6): 11.445 Fold Change
- Rep 2 Live Cells [Fold Change] ([1]; HG3, 10 nM, day 6): 11.6783 Fold Change
- Rep 1 Live Cells [Fold Change] ([1]; HG3, 10 nM, day 10): 19.7426 Fold Change
- Rep 2 Live Cells [Fold Change] ([1]; HG3, 10 nM, day 10): 14.8315 Fold Change
- Rep 1 Live Cells [Fold Change] ([1]; HG3, 10 nM, day 12): 31.5074 Fold Change
- Rep 2 Live Cells [Fold Change] ([1]; HG3, 10 nM, day 12): 21.021 Fold Change
- Rep 1 Live Cells [Fold Change] ([1]; HG3, 100 nM, day 0): 1 Fold Change
- Rep 2 Live Cells [Fold Change] ([1]; HG3, 100 nM, day 0): 1 Fold Change
- Rep 1 Live Cells [Fold Change] ([1]; HG3, 100 nM, day 3): 3.157 Fold Change
- Rep 2 Live Cells [Fold Change] ([1]; HG3, 100 nM, day 3): 5.133 Fold Change
- Rep 1 Live Cells [Fold Change] ([1]; HG3, 100 nM, day 6): 5.956 Fold Change
- Rep 2 Live Cells [Fold Change] ([1]; HG3, 100 nM, day 6): 6.365 Fold Change
- Rep 1 Live Cells [Fold Change] ([1]; HG3, 100 nM, day 10): 4.824 Fold Change
- Rep 2 Live Cells [Fold Change] ([1]; HG3, 100 nM, day 10): 6.047 Fold Change
- Rep 1 Live Cells [Fold Change] ([1]; HG3, 100 nM, day 12): 3.339 Fold Change
- Rep 2 Live Cells [Fold Change] ([1]; HG3, 100 nM, day 12): 4.755 Fold Change
- Rep 1 Live Cells [Fold Change] ([1]; HG3, 1 µM, day 0): 1 Fold Change
- Rep 2 Live Cells [Fold Change] ([1]; HG3, 1 µM, day 0): 1 Fold Change
- Rep 1 Live Cells [Fold Change] ([1]; HG3, 1 µM, day 3): 3.733 Fold Change
- Rep 2 Live Cells [Fold Change] ([1]; HG3, 1 µM, day 3): 5.933 Fold Change
- Rep 1 Live Cells [Fold Change] ([1]; HG3, 1 µM, day 6): 6.21 Fold Change
- Rep 2 Live Cells [Fold Change] ([1]; HG3, 1 µM, day 6): 5.993 Fold Change
- Rep 1 Live Cells [Fold Change] ([1]; HG3, 1 µM, day 10): 3.912 Fold Change
- Rep 2 Live Cells [Fold Change] ([1]; HG3, 1 µM, day 10): 5.304 Fold Change
- Rep 1 Live Cells [Fold Change] ([1]; HG3, 1 µM, day 12): 2.641 Fold Change
- Rep 2 Live Cells [Fold Change] ([1]; HG3, 1 µM, day 12): 3.878 Fold Change
- anti-proliferative potency compared to PRT382 ([1]; high doses (1µM)): similar
- anti-proliferative potency compared to PRT382 ([1]; lower doses (10nM, 100nM)): more potent
- Rep 1 Live Cells [Fold Change] ([2]; Mec-1, 1 nM, day 0): 1 Fold Change
- Rep 2 Live Cells [Fold Change] ([2]; Mec-1, 1 nM, day 0): 1 Fold Change
- Rep 1 Live Cells [Fold Change] ([2]; Mec-1, 1 nM, day 3): 5.6 Fold Change
- Rep 2 Live Cells [Fold Change] ([2]; Mec-1, 1 nM, day 3): 6.6 Fold Change
- Rep 1 Live Cells [Fold Change] ([2]; Mec-1, 1 nM, day 6): 24.6 Fold Change
- Rep 2 Live Cells [Fold Change] ([2]; Mec-1, 1 nM, day 6): 45.98 Fold Change
- Rep 1 Live Cells [Fold Change] ([2]; Mec-1, 1 nM, day 10): 216 Fold Change
- Rep 2 Live Cells [Fold Change] ([2]; Mec-1, 1 nM, day 10): 282.777 Fold Change
- Rep 1 Live Cells [Fold Change] ([2]; Mec-1, 1 nM, day 12): 1400 Fold Change
- Rep 2 Live Cells [Fold Change] ([2]; Mec-1, 1 nM, day 12): 1404.46 Fold Change
- Rep 1 Live Cells [Fold Change] ([2]; Mec-1, 10 nM, day 0): 1 Fold Change
- Rep 2 Live Cells [Fold Change] ([2]; Mec-1, 10 nM, day 0): 1 Fold Change
- Rep 1 Live Cells [Fold Change] ([2]; Mec-1, 10 nM, day 3): 4.77 Fold Change
- Rep 2 Live Cells [Fold Change] ([2]; Mec-1, 10 nM, day 3): 4.767 Fold Change
- Rep 1 Live Cells [Fold Change] ([2]; Mec-1, 10 nM, day 6): 9.22 Fold Change
- Rep 2 Live Cells [Fold Change] ([2]; Mec-1, 10 nM, day 6): 11.6783 Fold Change
- Rep 1 Live Cells [Fold Change] ([2]; Mec-1, 10 nM, day 10): 14.1 Fold Change
- Rep 2 Live Cells [Fold Change] ([2]; Mec-1, 10 nM, day 10): 14.8315 Fold Change
- Rep 1 Live Cells [Fold Change] ([2]; Mec-1, 10 nM, day 12): 6.51 Fold Change
- Rep 2 Live Cells [Fold Change] ([2]; Mec-1, 10 nM, day 12): 21.021 Fold Change
- Rep 1 Live Cells [Fold Change] ([2]; Mec-1, 100 nM, day 0): 1 Fold Change
- Rep 2 Live Cells [Fold Change] ([2]; Mec-1, 100 nM, day 0): 1 Fold Change
- Rep 1 Live Cells [Fold Change] ([2]; Mec-1, 100 nM, day 3): 4.7 Fold Change
- Rep 2 Live Cells [Fold Change] ([2]; Mec-1, 100 nM, day 3): 5.133 Fold Change
- Rep 1 Live Cells [Fold Change] ([2]; Mec-1, 100 nM, day 6): 7 Fold Change
- Rep 2 Live Cells [Fold Change] ([2]; Mec-1, 100 nM, day 6): 6.365 Fold Change
- Rep 1 Live Cells [Fold Change] ([2]; Mec-1, 100 nM, day 10): 3.48 Fold Change
- Rep 2 Live Cells [Fold Change] ([2]; Mec-1, 100 nM, day 10): 6.047 Fold Change
- Rep 1 Live Cells [Fold Change] ([2]; Mec-1, 100 nM, day 12): 1.18 Fold Change
- Rep 2 Live Cells [Fold Change] ([2]; Mec-1, 100 nM, day 12): 4.755 Fold Change
- Rep 1 Live Cells [Fold Change] ([2]; Mec-1, 1 µM, day 0): 1 Fold Change
- Rep 2 Live Cells [Fold Change] ([2]; Mec-1, 1 µM, day 0): 1 Fold Change
- Rep 1 Live Cells [Fold Change] ([2]; Mec-1, 1 µM, day 3): 3.93 Fold Change
- Rep 2 Live Cells [Fold Change] ([2]; Mec-1, 1 µM, day 3): 5.933 Fold Change
- Rep 1 Live Cells [Fold Change] ([2]; Mec-1, 1 µM, day 6): 5.81 Fold Change
- Rep 2 Live Cells [Fold Change] ([2]; Mec-1, 1 µM, day 6): 5.993 Fold Change
- Rep 1 Live Cells [Fold Change] ([2]; Mec-1, 1 µM, day 10): 3.37 Fold Change
- Rep 2 Live Cells [Fold Change] ([2]; Mec-1, 1 µM, day 10): 5.304 Fold Change
- Rep 1 Live Cells [Fold Change] ([2]; Mec-1, 1 µM, day 12): 1.63 Fold Change
- Rep 2 Live Cells [Fold Change] ([2]; Mec-1, 1 µM, day 12): 3.878 Fold Change
- anti-proliferative potency compared to PRT382 ([2]; high doses (1µM)): similar
- anti-proliferative potency compared to PRT382 ([2]; lower doses (10nM, 100nM)): more potent
